What was measured:
hPPARγ receptor = target: T1, hPPARγ receptor (Homo sapiens, UniProt P37231); assay: PPARγ Cell-based luciferase assay; conditions: CV-1 cells transfected with GAL4-hPPARγ LBD and UAStkLuc; at concentrations of 10^−6 M or less; read-out: agonism of the hPPARγ receptor (activation relative to full agonist rosiglitazone)
T1 construct: expressed in transfected cells; host or cells: CV-1 (African Green Monkey kidney, ATCC CCL-70)
T1 sequence (P37231 172-475 isoform P37231-2): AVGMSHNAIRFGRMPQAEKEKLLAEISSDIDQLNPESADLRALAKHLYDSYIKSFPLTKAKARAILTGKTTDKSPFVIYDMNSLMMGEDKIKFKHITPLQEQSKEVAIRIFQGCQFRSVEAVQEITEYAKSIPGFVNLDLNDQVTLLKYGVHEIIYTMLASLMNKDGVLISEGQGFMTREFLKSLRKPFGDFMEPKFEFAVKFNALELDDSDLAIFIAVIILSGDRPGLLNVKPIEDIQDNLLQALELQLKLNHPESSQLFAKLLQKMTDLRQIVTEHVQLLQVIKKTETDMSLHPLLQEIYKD
Summary of the method: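 CV-1 cells were transiently transfected with GAL4-DBD/human PPARγ LBD (172-475) and a UAS-tk-firefly luciferase reporter. Cells were plated at 10,000/well in 5% charcoal-stripped FBS medium onto 11-point, 3-fold compound dilutions and incubated overnight at 37 °C. Luminescence was read after Steady-Glo lysis, with activation scored relative to rosiglitazone as full agonist.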

[1] = system: Male Zucker Diabetic Fatty rats; assay: In vivo evaluation: serum glucose in Zucker Diabetic Fatty rats; design: species or system rat; conditions: 10 mg/kg once daily by oral gavage, 28 days, percent reduction from vehicle control at day 28 relative to normalization (140 mg/dL)
Procedure: Male Zucker Diabetic Fatty rats were lightly anesthetized with isofluorane gas and bleed by tail vein to obtain postprandial baseline concentrations for serum glucose, serum lipids and insulin. Animals were baseline matched by serum glucose and randomized into vehicle or treatment groups with compound administration by oral gavage beginning at 6.5 weeks of age. Selected compounds were administered once daily at 10 mg/kg in 25 mM N-Methyl-Glucamine with 5% w/v Solutol HS15. After 28 consecutive days of treatment, blood samples were obtained and analyzed for serum glucose. Values in Table 1 for % Glucose reduction represent a summary of the percent reduction from vehicle control animals at day 28 relative to normalization defined in this model as serum glucose levels of 140 mg/dL.

| Structure (SMILES) | Emax (hPPARγ receptor) [%] | % Glucose Reduction [1] [%] |
| --- | --- | --- |
| COCCOc1cc(Cn2c(C(=O)O)c(-c3ccc(C(C)(C)C)cc3)c3ccccc32)cc(N2CCOCC2)c1 [Example 68, 3-[4-(1,1-dimethylethyl)phenyl]-1-{[3-{[2-(methyloxy)ethyl]oxy}-5-(4-morpholinyl)phenyl]methyl}-1H-indole-2-carboxylic acid] | 20 to 80 | 95 |
| COCCOc1cc(Cn2c(C(=O)O)c(-c3ccc(C(C)(C)C)cc3)c3ccccc32)cc(OCC2CC2)c1 [Example 2, 1-[(3-[(cyclopropylmethyl)oxy]-5-{[2-(methyloxy)ethyl]oxy}phenyl)methyl]-3-[4-(1,1-dimethylethyl)phenyl]-1H-indole-2-carboxylic acid] | 20 to 80 | 96 |
| CC(C)(C)c1ccc(-c2c(C(=O)O)n(Cc3cccc(-c4ccc(S(C)(=O)=O)cc4)c3)c3ccccc23)cc1 [Example 24, 3-[4-(1,1-dimethylethyl)phenyl]-1-{[4′-(methylsulfonyl)-3-biphenylyl]methyl}-1H-indole-2-carboxylic acid] | 20 to 80 | 79 |

Source: US20100240642A1, “1H-Indole-2-Carboxylic Acid Derivatives Useful As PPAR Modulators” (SMITHKLINE BEECHAM CORPORATION, priority 2006, published 2010)
